# Laboratory results: US20240342138A1, “MICROTUBULE TARGETING AGENTS” (BPGbio, Inc., priority 2023, published 2024)
# Where two headings read alike, the source gives them in different places.
# Tested on: A549 cells
# Experiment: In vitro potency, ATPlite 1Step (NTRC Oncolines)
# Format: cell-based
# Conditions: Homo sapiens; for Emax: A549, A549, in vitro, biphasic, read-out: Maximum effect (%)
# Experimental: FIG. 13A-13B show efficacy of Compound 1 in a lung adenocarcinoma xenograft model (A549). A) In vitro potency of Compound 1 in A549 cells as evaluated by ATPlite 1Step™ Perkin Elmer (performed by NTRC Oncolines). B) A549 cells (5×10^6) were implanted subcutaneously in athymic female nude mice and tumors were allowed to grow to a volume of ˜112 mm^3 followed by randomization of animals into three (3) groups (vehicle control, 75 mg/kg, 150 mg/kg Compound 1) with 12 animals per group. A Compound 1 solid dispersion was prepared prior to each dosing and administered by oral gavage two times a day (BID). Mean tumor volume of each group over time and the growth of tumor in each individual animal was graphed. For each individual animal of […] group TGI (%) was calculated based on the tumor growth inhibition of individual tumor at each given day of the study compared to the average of the group for that given day of the study. P-values were calculated using two-tailed distribution and two-sample equal variance (homoscedastic) for each group treated with Compound 1 for each given day of the study in reference to vehicle control. NS p>0.05; *p≤0.05; **p≤0.01; ***p p≤0.001; **** p≤0.0001.
# A549 is a human lung adenocarcinoma cell line isolated from the lung tissue of their origin. […] A549 cells were implanted subcutaneously in nude mice and tumors were allowed to grow to an average volume of 112 mm^3 followed by randomization into three (3) groups consisting of vehicle control, 75 mg/kg and 150 mg/kg Compound 1 (12 animals per group). A Compound 1 solid dispersion was administered by oral gavage two times a day (BID). All animals remained in the study until Day 28 except one animal from Group 3 (Animal #29), which exited the study on Day 11 due to more than 20% body weight loss. This animal was excluded from all analysis. Data from Day 14-18 were excluded from the analysis due to inconsistencies in data collection methods.
smiles,measurement,setting,value
"COc1ccccc1-c1nc(CNC(=O)c2ccccc2OC(F)F)n[nH]1 [Compound 1, 2-(difluoromethoxy)-N-[[5-(2-methoxyphenyl)-1H-1,2,4-triazol-3-yl]methyl]benzamide]",Emax,at highest concentration tested,100%
same,Emax,first phase,52%
same,IC50,"A549, biphasic response, first phase",53 nM
